Source: ChEMBL document CHEMBL3351790, “Inhibitory effects of p-alkylaminophenol on melanogenesis” (Bioorg Med Chem, 2014)
One block for each compound: values may come before it. Activity calls are given as the source filed them. The calls are words filed in the database; no cut-off is given here.

What was measured:
[1] = test system: Liver microsome; assay: Inhibition of lipid peroxidation in rat liver microsomes; format: functional
[2] = target: T1, Tyrosinase (Mus musculus) (UniProt P11344); assay: Inhibition of tyrosinase in mouse B16 cells using L-tyrosine as substrate preincubated at 50 uM for 20 mins by spectrophotometry relative to control; format: cell-based
T1 sequence (whole entry): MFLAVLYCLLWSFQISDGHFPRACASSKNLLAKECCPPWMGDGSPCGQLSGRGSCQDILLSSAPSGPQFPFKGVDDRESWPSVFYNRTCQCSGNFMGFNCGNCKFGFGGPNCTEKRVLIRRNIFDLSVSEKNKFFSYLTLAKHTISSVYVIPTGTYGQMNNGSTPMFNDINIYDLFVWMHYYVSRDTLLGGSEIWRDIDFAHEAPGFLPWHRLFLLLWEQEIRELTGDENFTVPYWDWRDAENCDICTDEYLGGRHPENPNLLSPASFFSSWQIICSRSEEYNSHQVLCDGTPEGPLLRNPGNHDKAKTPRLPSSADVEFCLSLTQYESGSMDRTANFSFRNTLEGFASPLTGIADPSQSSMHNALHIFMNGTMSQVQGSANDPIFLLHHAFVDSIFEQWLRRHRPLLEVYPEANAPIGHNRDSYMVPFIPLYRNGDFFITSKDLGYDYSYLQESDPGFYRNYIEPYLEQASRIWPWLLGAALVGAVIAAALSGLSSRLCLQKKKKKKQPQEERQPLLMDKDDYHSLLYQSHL

[3] = test system: B16; assay: Cytotoxicity against mouse B16 cells at 1 uM after 72 hrs by MTT assay; format: cell-based; conditions: b16, 72 h
[4] = test system: B16; assay: Inhibition of alpha-MSH-induced melanin production in mouse B16 cells at 1 uM after 3 days by spectrophotometry relative to control; format: functional; conditions: B16, 72 h
[5] = test system: B16; assay: Inhibition of alpha-MSH-induced melanin production in mouse B16 cells at 0.1 to 0.4 uM after 3 days by spectrophotometry relative to control; format: functional, cell-based
[6] = test system: B16; assay: Inhibition of alpha-MSH-induced TRP-1 protein expression in mouse B16 cells after 3 days by Western blotting relative to control; format: functional, cell-based
[7] = test system: B16; assay: Inhibition of alpha-MSH-induced MITF protein expression in mouse B16 cells after 3 days by Western blotting relative to control; format: functional, cell-based
[8] = test system: B16; assay: Inhibition of alpha-MSH-induced tyrosinase protein expression in mouse B16 cells at 0.1 to 1 uM after 3 days by Western blotting relative to control; format: functional, cell-based
[9] = test system: B16; assay: Inhibition of alpha-MSH-induced TRP-2 protein expression in mouse B16 cells at 0.1 to 1 uM after 3 days by Western blotting relative to control; format: functional, cell-based
[10] = test system: B16; assay: Inhibition of alpha-MSH-induced TRP-1 mRNA expression in mouse B16 cells at 1 uM after 3 days by RT-PCR analysis relative to control; format: functional; conditions: B16, 72 h
[11] = test system: B16; assay: Inhibition of alpha-MSH-induced MITF mRNA expression in mouse B16 cells at 1 uM after 3 days by RT-PCR analysis relative to control; format: functional; conditions: B16, 72 h
[12] = test system: B16; assay: Inhibition of alpha-MSH-induced tyrosinase mRNA expression in mouse B16 cells at 0.1 to 1 uM after 3 days by RT-PCR analysis relative to control; format: functional, cell-based
[13] = test system: B16; assay: Inhibition of alpha-MSH-induced TRP-2 mRNA expression in mouse B16 cells at 0.1 to 1 uM after 3 days by RT-PCR analysis relative to control; format: functional, cell-based
[14] = test system: B16; assay: Inhibition of alpha-MSH-induced ERK phosphorylation in mouse B16 cells at 0.1 uM after 3 days by Western blotting relative to control; format: cell-based
[15] = test system: B16; assay: Inhibition of alpha-MSH-induced ERK phosphorylation in mouse B16 cells at 0.4 uM after 3 days by Western blotting relative to control; format: cell-based
[16] = test system: B16; assay: Inhibition of alpha-MSH-induced ERK phosphorylation in mouse B16 cells at 1 uM after 3 days by Western blotting relative to control; format: cell-based
[17] = test system: B16; assay: Inhibition of alpha-MSH-induced AKT phosphorylation in mouse B16 cells at 0.1 to 1 uM after 3 days by Western blotting relative to control; format: cell-based

Compound: CC1=C(/C=C/C(C)=C/C=C/C(C)=C/C(=O)Nc2ccc(O)cc2)C(C)(C)CCC1 [FENRETINIDE]
- IC50 [1]: 5000 nM

Compound: CCCCCCCCCCCCNc1ccc(O)cc1
- IC50 [1]: 15.5 nM

Compound: CC1=C(/C=C/C(C)=C/C=C/C(C)=C/C(=O)O)C(C)(C)CCC1 [TRETINOIN]
- IC50 [1]: 3200 nM

Compound: CCCCCCNc1ccc(O)cc1
- IC50 [1]: 33 nM

Stronger by IC50 [1], values ahead:

- inhibition [2]: 7%
- IC50 [1]: 15 nM
Compound: CCCCCCCCCCNc1ccc(O)cc1
- Activity [3]: Non-toxic
- inhibition at 1 µM [4]: 34%
- inhibition [5]: inactive
- inhibition [6]: Dose-dependent effect
- inhibition [7]: Dose-dependent effect
- inhibition [8]: inactive
- inhibition [9]: inactive
- inhibition at 1 µM [10]: 50%
- inhibition at 1 µM [11]: 68%
- inhibition [12]: inactive
- inhibition [13]: inactive
- inhibition [14]: 22%
- inhibition [15]: 75%
- inhibition [16]: 88%
- inhibition [17]: inactive

- IC50 [1]: 14 nM
Compound: CCCCCCCCNc1ccc(O)cc1
